Reference: ChEMBL document CHEMBL3885861, “Open TG-GATES”

Species on record: Rattus norvegicus
Experiment: Open TG-GATES - Regimen: Daily Repeat
Assay type: toxicity, organism-based, Sprague-Dawley
Parameters: regimen Daily Repeat, gender Male, age 6 weeks
Details: in vivo, po, route gavage; for TP / gamma-GTP / ALP / ALT / AST / BUN / CRE / DBIL / GLC / IP / K / LDH / Na / PL / RALB / TBIL / TC / TG: tissue Plasma; for APTT / Bas / Eos / Fbg / Ht / Lym / MCH / MCHC / MCV / Mono / Neu / Plat / RBC / Ret / WBC: tissue Blood
[1] = 45 mg/kg, […], dose level Low, time 28 day
[2] = 150 mg/kg, 72 h, dose level Middle, time 3 day
[3] = 150 mg/kg, […], dose level Middle, time 7 day
[4] = 150 mg/kg, […], dose level Middle, time 14 day
[5] = 150 mg/kg, […], dose level Middle, time 28 day
[6] = 450 mg/kg, 72 h, dose level High, time 3 day
[7] = 450 mg/kg, […], dose level High, time 7 day
[8] = 450 mg/kg, […], dose level High, time 14 day
[9] = 450 mg/kg, […], dose level High, time 28 day

CCCC(CCC)C(=O)O [VALPROIC ACID]
TP [1]: 5.9 g/dL
gamma-GTP [1]: 0.6 IU/L
TERMINAL_BW [2]: 227 g
APTT [2]: 19.8 s
Bas [2]: 0%
Eos [2]: 1%
Fbg [2]: 219.8 mg/dL
Ht [2]: 38.6%
Lym [2]: 78%
MCH [2]: 21.6 pg
MCHC [2]: 34.3%
MCV [2]: 62.9 fL
Mono [2]: 3.8%
Neu [2]: 17%
Plat [2]: 140.1 x10_4/uL
RBC [2]: 614.2 x10_4/ul
Ret [2]: 6.8%
WBC [2]: 106.9 x10_2/uL
ALP [2]: 920.6 IU/L
ALT [2]: 40 IU/L
AST [2]: 73.6 IU/L
BUN [2]: 16.2 mg/dL
CRE [2]: 0.4 mg/dL
DBIL [2]: 0.074 mg/dL
GLC [2]: 211.4 mg/dL
IP [2]: 7.9 mg/dL
K [2]: 3.8 meq/L
LDH [2]: 179.2 IU/L
Na [2]: 141.4 meq/L
PL [2]: 148.6 mg/dL
RALB [2]: 3.3 g/dL
TBIL [2]: 0.1 mg/dL
TC [2]: 76.8 mg/dL
TG [2]: 73 mg/dL
TP [2]: 5.4 g/dL
gamma-GTP [2]: 1.2 IU/L
TERMINAL_BW [3]: 255.5 g
TERMINAL_BW [4]: 311.1 g
TERMINAL_BW [5]: 400.1 g
APTT [3]: 19.5 s
Bas [3]: 0%
Eos [3]: 1.2%
Fbg [3]: 219.6 mg/dL
Ht [3]: 40.1%
Lym [3]: 81%
MCH [3]: 20.8 pg
MCHC [3]: 33.9%
MCV [3]: 61.3 fL
Mono [3]: 3.4%
Plat [3]: 129.5 x10_4/uL
RBC [3]: 655 x10_4/ul
Ret [3]: 5.7%
WBC [3]: 106 x10_2/uL
APTT [4]: 18.7 s
Bas [4]: 0%
Eos [4]: 1%
Fbg [4]: 216.8 mg/dL
Ht [4]: 42.3%
Lym [4]: 83.2%
MCH [4]: 20.6 pg
MCHC [4]: 35%
MCV [4]: 58.9 fL
Mono [4]: 2.6%
Neu [4]: 13.2%
Plat [4]: 108.8 x10_4/uL
RBC [4]: 720 x10_4/ul
Ret [4]: 4%
WBC [4]: 93.8 x10_2/uL
APTT [5]: 19.7 s
Bas [5]: 0%
Eos [5]: 1.4%
Fbg [5]: 214.2 mg/dL
Ht [5]: 42.1%
Lym [5]: 83.2%
MCH [5]: 19 pg
MCHC [5]: 35.2%
MCV [5]: 53.9 fL
Mono [5]: 2.6%
Neu [5]: 12.4%
Plat [5]: 116.1 x10_4/uL
RBC [5]: 781.6 x10_4/ul
Ret [5]: 2.3%
WBC [5]: 89.2 x10_2/uL
ALP [3]: 816 IU/L
ALT [3]: 29.8 IU/L
AST [3]: 59.2 IU/L
BUN [3]: 15.4 mg/dL
CRE [3]: 0.4 mg/dL
DBIL [3]: 0.078 mg/dL
GLC [3]: 220.6 mg/dL
IP [3]: 7.2 mg/dL
K [3]: 3.7 meq/L
LDH [3]: 194.4 IU/L
Na [3]: 140.6 meq/L
RALB [3]: 3.4 g/dL
TBIL [3]: 0.1 mg/dL
TC [3]: 69.4 mg/dL
TG [3]: 109.4 mg/dL
TP [3]: 5.6 g/dL
gamma-GTP [3]: 1.4 IU/L
ALP [4]: 877.8 IU/L
ALT [4]: 34.4 IU/L
AST [4]: 64.2 IU/L
BUN [4]: 16.6 mg/dL
CRE [4]: 0.4 mg/dL
DBIL [4]: 0.082 mg/dL
GLC [4]: 218.2 mg/dL
IP [4]: 7.9 mg/dL
K [4]: 3.8 meq/L
LDH [4]: 176.8 IU/L
Na [4]: 140.4 meq/L
PL [4]: 153.2 mg/dL
RALB [4]: 3.4 g/dL
TBIL [4]: 0.1 mg/dL
TC [4]: 69.4 mg/dL
TG [4]: 123 mg/dL
TP [4]: 5.8 g/dL
gamma-GTP [4]: 0.8 IU/L
ALP [5]: 729.4 IU/L
ALT [5]: 35 IU/L
AST [5]: 65 IU/L
BUN [5]: 17.6 mg/dL
CRE [5]: 0.4 mg/dL
DBIL [5]: 0.1 mg/dL
GLC [5]: 208.2 mg/dL
IP [5]: 6.7 mg/dL
K [5]: 3.9 meq/L
LDH [5]: 178.4 IU/L
Na [5]: 141 meq/L
PL [5]: 142.4 mg/dL
RALB [5]: 3.5 g/dL
TBIL [5]: 0.2 mg/dL
TC [5]: 66.6 mg/dL
TG [5]: 130.4 mg/dL
TP [5]: 6.1 g/dL
gamma-GTP [5]: 0.6 IU/L
TERMINAL_BW [6]: 225.2 g
APTT [6]: 19.4 s
Bas [6]: 0%
Eos [6]: 1%
Fbg [6]: 213.4 mg/dL
Ht [6]: 38.5%
Lym [6]: 79.2%
MCH [6]: 21.5 pg
MCHC [6]: 34.4%
MCV [6]: 62.4 fL
Mono [6]: 2.8%
Neu [6]: 16.4%
Plat [6]: 131.5 x10_4/uL
RBC [6]: 618.2 x10_4/ul
Ret [6]: 5.1%
WBC [6]: 85.9 x10_2/uL
ALP [6]: 765 IU/L
ALT [6]: 31.2 IU/L
AST [6]: 64.8 IU/L
BUN [6]: 14.6 mg/dL
CRE [6]: 0.4 mg/dL
DBIL [6]: 0.07 mg/dL
GLC [6]: 201.8 mg/dL
IP [6]: 7.9 mg/dL
K [6]: 3.7 meq/L
LDH [6]: 197.2 IU/L
Na [6]: 141.8 meq/L
PL [6]: 136 mg/dL
RALB [6]: 3.4 g/dL
TBIL [6]: 0.1 mg/dL
TC [6]: 67.2 mg/dL
TG [6]: 64.8 mg/dL
TP [6]: 5.5 g/dL
gamma-GTP [6]: 1.2 IU/L
TERMINAL_BW [7]: 257.7 g
TERMINAL_BW [8]: 310.7 g
TERMINAL_BW [9]: 375.7 g
APTT [7]: 19.5 s
Bas [7]: 0%
Eos [7]: 0.8%
Fbg [7]: 209.8 mg/dL
Ht [7]: 39.4%
Lym [7]: 78.8%
MCH [7]: 21.1 pg
MCHC [7]: 34.2%
MCV [7]: 61.7 fL
Mono [7]: 4.2%
Plat [7]: 114.2 x10_4/uL
RBC [7]: 639.6 x10_4/ul
Ret [7]: 6%
WBC [7]: 111.1 x10_2/uL
APTT [8]: 18.5 s
Bas [8]: 0%
Eos [8]: 0.8%
Fbg [8]: 226.2 mg/dL
Ht [8]: 41.6%
Lym [8]: 84%
MCH [8]: 20.2 pg
MCHC [8]: 34.6%
MCV [8]: 58.4 fL
Mono [8]: 3.6%
Neu [8]: 10.6%
Plat [8]: 116.8 x10_4/uL
RBC [8]: 712.6 x10_4/ul
Ret [8]: 4.7%
WBC [8]: 84.9 x10_2/uL
APTT [9]: 20.4 s
Bas [9]: 0%
Eos [9]: 1%
Fbg [9]: 201 mg/dL
Ht [9]: 41.7%
Lym [9]: 85%
MCH [9]: 19.1 pg
MCHC [9]: 34.7%
MCV [9]: 55.1 fL
Mono [9]: 3%
Neu [9]: 10%
Plat [9]: 101.4 x10_4/uL
RBC [9]: 757 x10_4/ul
Ret [9]: 2.4%
WBC [9]: 78.5 x10_2/uL
ALP [7]: 901.6 IU/L
ALT [7]: 35.2 IU/L
AST [7]: 65.6 IU/L
BUN [7]: 16.2 mg/dL
CRE [7]: 0.4 mg/dL
DBIL [7]: 0.082 mg/dL
GLC [7]: 217.6 mg/dL
IP [7]: 7.5 mg/dL
K [7]: 3.9 meq/L
LDH [7]: 204.2 IU/L
Na [7]: 139.4 meq/L
PL [7]: 132.8 mg/dL
RALB [7]: 3.3 g/dL
TBIL [7]: 0.1 mg/dL
TC [7]: 62 mg/dL
TG [7]: 94.4 mg/dL
TP [7]: 5.6 g/dL
gamma-GTP [7]: 1.4 IU/L
ALP [8]: 786 IU/L
ALT [8]: 33 IU/L
AST [8]: 64.6 IU/L
BUN [8]: 17 mg/dL
CRE [8]: 0.4 mg/dL
DBIL [8]: 0.086 mg/dL
GLC [8]: 207.6 mg/dL
IP [8]: 6.9 mg/dL
K [8]: 3.7 meq/L
LDH [8]: 189.2 IU/L
Na [8]: 140.2 meq/L
PL [8]: 140.4 mg/dL
RALB [8]: 3.4 g/dL
TBIL [8]: 0.1 mg/dL
TC [8]: 65 mg/dL
TG [8]: 101 mg/dL
TP [8]: 5.7 g/dL
gamma-GTP [8]: 1.6 IU/L
ALP [9]: 583.2 IU/L
ALT [9]: 29.2 IU/L
AST [9]: 62.8 IU/L
BUN [9]: 17.8 mg/dL
CRE [9]: 0.5 mg/dL
DBIL [9]: 0.078 mg/dL
GLC [9]: 198.8 mg/dL
IP [9]: 5.9 mg/dL
K [9]: 3.9 meq/L
LDH [9]: 209.8 IU/L
Na [9]: 140.4 meq/L
PL [9]: 126.6 mg/dL
RALB [9]: 3.4 g/dL
TBIL [9]: 0.1 mg/dL
TC [9]: 55.4 mg/dL
TG [9]: 98.4 mg/dL
TP [9]: 5.7 g/dL
gamma-GTP [9]: 1 IU/L
